US5508311A, “Aliphatic propargylamines as selective MAO-B inhibitors and as neuroprotective agents” (University of Saskatchewan, priority 1993, dated 1996)
Where a name gives a salt, the structure may show the parent alone. Read-outs that look alike come from different tables or passages of the source.

Tests used:
MAO-B [1] = target: T1, MAO-B (Mus musculus, UniProt Q8BW75); test: in vivo; format: in vivo; settings: for Ratio MAO-A/MAO-B: 120 min; for ED50: read-out: PE ID50
T1 construct: MAO activities in the mouse brain after; from tissue
T1 sequence (Q8BW75 1-520): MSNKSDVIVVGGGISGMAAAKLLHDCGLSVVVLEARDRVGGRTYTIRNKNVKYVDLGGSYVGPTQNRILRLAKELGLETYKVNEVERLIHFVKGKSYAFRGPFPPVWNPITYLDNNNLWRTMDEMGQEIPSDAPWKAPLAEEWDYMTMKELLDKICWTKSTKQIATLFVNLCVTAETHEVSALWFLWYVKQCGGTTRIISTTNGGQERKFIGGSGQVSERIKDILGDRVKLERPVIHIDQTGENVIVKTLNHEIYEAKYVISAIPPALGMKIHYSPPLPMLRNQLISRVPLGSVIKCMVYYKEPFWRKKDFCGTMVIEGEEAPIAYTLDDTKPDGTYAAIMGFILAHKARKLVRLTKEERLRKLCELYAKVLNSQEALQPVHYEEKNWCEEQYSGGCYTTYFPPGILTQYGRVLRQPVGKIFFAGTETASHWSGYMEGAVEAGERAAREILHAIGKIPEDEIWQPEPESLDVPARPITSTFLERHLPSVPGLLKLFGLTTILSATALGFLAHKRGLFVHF
Experimental: (§1) Albino Swiss mice were used in this study. The animals were injected intraperitoneally with different doses of the aliphatic propargylamines in 100 μL saline.
(§2) 0.5, 1, 2, 5, 10, 20, 50, 100 mg/Kg. Striata were dissected from the brai
(§3) two hours after i.p. administration of the drugs. MAOA and MAOB activitie
(§4) were determined immediately. The values were estimated from doseresponse

MAO-A [2] = target: T2, MAO-A (Mus musculus, UniProt Q64133); format: in vivo; settings: mouse, in vivo, po, 10 mg/kg
T2 construct: MAO activities in the mouse brain after; from tissue
T2 sequence (Q64133 1-526): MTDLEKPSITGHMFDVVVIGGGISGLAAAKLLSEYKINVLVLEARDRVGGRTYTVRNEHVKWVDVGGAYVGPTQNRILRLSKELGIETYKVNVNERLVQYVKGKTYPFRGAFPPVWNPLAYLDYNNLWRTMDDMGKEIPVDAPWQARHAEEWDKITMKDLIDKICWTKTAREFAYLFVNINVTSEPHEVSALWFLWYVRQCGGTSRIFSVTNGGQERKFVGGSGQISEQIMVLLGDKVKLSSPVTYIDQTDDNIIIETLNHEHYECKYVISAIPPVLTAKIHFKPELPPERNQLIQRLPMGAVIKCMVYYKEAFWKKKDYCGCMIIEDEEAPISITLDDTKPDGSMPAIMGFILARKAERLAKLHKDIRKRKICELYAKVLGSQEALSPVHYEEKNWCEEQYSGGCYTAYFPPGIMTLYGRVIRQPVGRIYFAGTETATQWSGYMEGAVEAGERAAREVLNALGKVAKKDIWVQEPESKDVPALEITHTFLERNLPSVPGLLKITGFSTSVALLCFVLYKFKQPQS
Experimental: (§5) Table 3 indicates the MAO activities in the mouse brain following oral administration of the aliphatic propargylamines.
(§6) of each compound. Striata were dissected from the brain two hours after
(§7) the administration of the drugs. MAOA and MAOB activities were determined

MAO-B [3] = target: T1, MAO-B; test: MAO-B activity in the mouse brain after oral administration (substrate PE); format: in vivo; settings: oral 10 mg/Kg, 2 hours; PE (1.9 × 10^-5 M); mean ± standard error; saline = 100
Experimental: as §5, §6, §7
Striata were dissected from the brain two
hours after oral administration of the drugs. MAOB activities were then
determined immediately. The values were estimated from doseresponse

MAO-A [4] = target: T2, MAO-A; test: in vivo; settings: ip, 2 h, read-out: 5-HT ID50
Experimental: as §1, §2, §3, §4

MAO-B [5] = target: T3, MAO-B (Rattus norvegicus, UniProt P19643); test: biochemical; format: biochemical; settings: for Ratio MAO-A/MAO-B: rat, liver mitochondrial membranes
T3 sequence (P19643 1-520): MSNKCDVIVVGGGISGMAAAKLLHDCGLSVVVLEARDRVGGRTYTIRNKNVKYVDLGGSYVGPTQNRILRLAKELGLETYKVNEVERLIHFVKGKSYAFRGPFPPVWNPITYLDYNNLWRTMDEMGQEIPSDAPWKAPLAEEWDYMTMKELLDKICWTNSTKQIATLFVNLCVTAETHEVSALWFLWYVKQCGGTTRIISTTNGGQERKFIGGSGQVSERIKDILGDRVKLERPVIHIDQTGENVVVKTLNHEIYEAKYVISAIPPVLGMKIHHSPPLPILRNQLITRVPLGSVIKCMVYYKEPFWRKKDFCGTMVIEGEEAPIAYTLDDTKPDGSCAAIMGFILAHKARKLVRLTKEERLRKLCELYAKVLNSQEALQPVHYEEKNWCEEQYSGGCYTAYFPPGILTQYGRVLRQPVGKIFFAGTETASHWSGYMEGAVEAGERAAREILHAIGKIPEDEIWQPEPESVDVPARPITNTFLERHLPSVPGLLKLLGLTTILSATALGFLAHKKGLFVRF
Experimental: (§8) The aliphatic propargylamine inhibitors (from 1×10^-10 M to 1×10^-4 M) were preincubated with the MAO for 20 min. at ambient room temperature and then the residual enzyme activities were determined by addition of the substrates, followed by further incubation at 37° C. for 30 min. The enzymatic reactions were terminated by the addition of citric acid and the aldehyde products were extracted with toluene: ethyl acetate (1:1, v/v) and the radio-activities assessed in a scintillation counter.

MAO-A [6] = target: T4, MAO-A (Rattus norvegicus, UniProt P21396); test: biochemical; format: biochemical; settings: substrate 5-HT (5 × 10^-4 M); rat liver MAO, in vitro; average of at least 3 independent experiments
T4 sequence (P21396 1-526): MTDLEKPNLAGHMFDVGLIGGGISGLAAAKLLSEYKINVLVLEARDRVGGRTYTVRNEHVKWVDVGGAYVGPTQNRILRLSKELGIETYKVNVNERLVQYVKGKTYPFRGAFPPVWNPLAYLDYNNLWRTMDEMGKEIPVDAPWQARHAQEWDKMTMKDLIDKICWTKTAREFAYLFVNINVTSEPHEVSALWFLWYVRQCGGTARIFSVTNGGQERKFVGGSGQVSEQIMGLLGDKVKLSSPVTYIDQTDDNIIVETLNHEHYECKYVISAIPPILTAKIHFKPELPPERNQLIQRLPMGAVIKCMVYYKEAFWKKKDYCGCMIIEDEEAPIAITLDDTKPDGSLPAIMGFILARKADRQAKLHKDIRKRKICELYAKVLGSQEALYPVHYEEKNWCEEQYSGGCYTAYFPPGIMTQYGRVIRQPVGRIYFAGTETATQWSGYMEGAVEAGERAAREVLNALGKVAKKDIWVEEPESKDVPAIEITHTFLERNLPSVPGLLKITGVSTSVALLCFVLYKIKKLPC
Experimental: as §8

monoamine oxidase = test: Inhibition of rat liver monoamine oxidase deamination of dopamine (DA, mixed-type MAO A and B substrate) in vitro; format: biochemical; settings: substrate DA (5 × 10^-4 M), average of at least 3 independent experiments
Experimental: as §8

[7] = substrate PE (1.9 × 10^-5 M), rat liver MAO, in vitro, average of at least 3 independent experiments

With C#CCN(C)C(C)CCCCC.Cl (stereo not drawn) [Example 2-HMP, N-(2-Heptyl)-N-methylpropargylamine hydrochloride] the “MAO-B ID50 (mg/Kg) / IC50 (1 × 10^-6 M)” value (MAO-B [1]; mouse, in vivo, ip) was 2.5, the “Ratio MAO-A/MAO-B” value (MAO-B [1]; mouse, in vivo, ip) was 50 and the ED50 (MAO-B [1]; mouse, ip, 2 h) was 0.5 mg/kg. The “Relative activity 5-HT” value (MAO-A [2]) was 99 ± 5, the “Relative activity PE” value (MAO-B [3]) was 39 ± 4% and the ED50 (MAO-A [4]) was 25 mg/kg. The “Ratio MAO-A/MAO-B” value (MAO-B [5]) was 100, the IC50 (MAO-B [5]; read-out: PE IC50) was 0.2 µM and the IC50 (MAO-A [6]) was 20 µM. For the same molecule, the IC50 (monoamine oxidase) was 0.3 µM.
With C#CCN(C)C(C)C.Cl [Example 2-PrMP, N-Methyl-N-(2-propyl)propargylamine hydrochloride] the IC50 (MAO-B [5]; […], rat liver MAO, in vitro, average of at least 3 independent experiments, read-out: PE IC50) was 20 µM, the “5-HT IC50” value (MAO-A [6]) was “no effect” and the IC50 (monoamine oxidase) was 30 µM.
In the case of C#CCCN(C)C(C)CC.O=C(O)C(=O)O (stereo not drawn) [Example 3-BuBuM, N-(3-Butynyl)-N-(2-butyl)methylamine oxalate salt], the “PE IC50” value (MAO-B [5]) is reported as “inactive” and the “5-HT IC50” value (MAO-A [6]) is reported as “inactive”.
C#CCN(C)CCCC(=O)O [Example 3-CP-MP, N-(3-Carboxy-1-propyl)-N-methylproparglamine oxalate] was tested, and the “PE IC50” value (MAO-B [5]; [7]) was “inactive”, the “5-HT IC50” value (MAO-A [6]) was “inactive” and the “DA IC50” value (monoamine oxidase) was “inactive”.
For C#CCN(C)CCCCCC(=O)OCC.O=C(O)C(=O)O [Example 5-CP1MP, N-(5-carbethoxy-1-pentyl)-N-methylpropargylamine oxalate], the “PE IC50” value (MAO-B [5]) was “inactive”, the “5-HT IC50” value (MAO-A [6]) was “inactive” and the “DA IC50” value (monoamine oxidase) was “inactive”.
For C#CCN(C)C(C)CCCC(=O)OCC.Cl (stereo not drawn) [Example 5-CP2MP, N-(5-Carbethoxy-2-pentyl)-N-methylpropargylamine-HCl], the “PE IC50” value (MAO-B [5]) was “inactive”, the “5-HT IC50” value (MAO-A [6]) was “inactive” and the “DA IC50” value (monoamine oxidase) was “inactive”.
C#CCN(C)CCCCCCO.Cl [Example 6-OH-Hx1MP, N-(6-Hydroxy-1-hexyl)-N-methylpropargylamine-HCl] was tested, and the IC50 (MAO-B [5]; [7]) was 100 µM and the “5-HT IC50” value (MAO-A [6]) was “inactive”.
For C#CCN(C)C(CC)CC.O=C(O)C(=O)O [Example M-3-PP, N-Methyl-N-(3-pentyl)propargylamine oxalate], the “MAO-B ID50 (mg/Kg) / IC50 (1 × 10^-6 M)” value (MAO-B [1]; ID50 i.p. in mice versus IC50 in vitro) was 10 (mg/Kg)/(1 × 10^-6 M), the “Ratio MAO-A/MAO-B” value (MAO-B [1]; mouse, in vivo, ip) was 12 and the ED50 (MAO-B [1]; mouse, ip, 2 hours after administration, […], estimated from dose response curves) was 1 mg/kg. For the same molecule, the ED50 (MAO-A [4]) was 12 mg/kg, the “Ratio MAO-A/MAO-B” value (MAO-B [5]) was 10 and the IC50 (MAO-B [5]; read-out: PE IC50) was 0.2 µM. It also gave an IC50 (MAO-A [6]) of 2 µM.
